Results published in patent US20100292229A1, “TRYPHOSTIN-ANALOGS FOR THE TREATMENT OF CELL PROLIFERATIVE DISEASES” (The Board of Regents of the University of Texas System, priority 2006, published 2010).

How the values were obtained:
[1] = system: p70 and p55 tyrosine phosphorylation; assay: Phosphotyrosine (4G10) immunoblot in B-cell malignancy cell lines; assay type: cell-based
Procedure: MM-1 cells were pretreated with Degrasyn (at the concentration indicated) for 2 h before the addition of IL-6 for 15 min (as noted). Total cell lysates were prepared and equal protein aliquots were resolved by SDS-PAGE and immunoblotted for phosphotyrosine (4G10).
MM-1 and LP (lymphoma) cells were treated with Degrasyn (at the concentration indicated) for 2 h before cell lysates were prepared and equal protein aliquots were resolved by SDS-PAGE and immunoblotted for phosphotyrosine (4G10).
MM-1 and Mino (Mantle cell lymphoma) cells were treated with Degrasyns with different levels of anti-tumor efficacy (at the concentration indicated) for 2 h before cell lysates were prepared and equal protein aliquots were resolved by SDS-PAGE and immunoblotted for phosphotyrosine (4G10).
MM-1 cells were treated as indicated before analysis of cellular tyrosine phosphorylation by immunoblotting. Both p70 and p55 were tyrosine phosphorylated after 15 min of Degrasyn treatment which peaks in intensity after 1 h and remains higher than control levels after 4 h. These early changes may underlie or be a marker of Degrasyn activity in B-cell malignancies.
Western Blot analysis. Cells were harvested, washed twice in cold 1×PBS and lysed in modified RIPA lysis buffer (150 mM NaCl, 1% NP-40, 0.5% Na-deoxycholate [DOC], 0.1% Na-dodecyl sulfate [SDS], 50 mM Tris-HCl (pH 7.5), 1 mM EDTA, 1 mM NaF, 2 mM Na-vanadate, with protease inhibitors (1 mM PMSF, 1 mM benzamidine, 10 μg/ml aprotinin, 10 μg/ml leupeptin) on ice for 30 min. The lysed cells were centrifuged at 13,000 rpm for 30 min and the supernatant collected. The protein concentration of the cell lysate was determined by the Bradford Protein Assay. Fifty to 60 μg of protein were resolved in a 10% SDS-PAGE, and transferred to a PVDF membrane. Western blotting was performed using specific primary antibodies Peroxidase-conjugated affiniPure anti-Mouse Anti-Rabbit secondary antibodies (Jackson Immunoresearch Laboratories, West Grove, Pa.). The proteins were visualized with ECL Plus reagents (Amersham Biosciences).

[2] = biological target: T1, nucleophosmin (NPM) (Homo sapiens, UniProt P06748); assay: Affinity recovery of Degrasyn interactive proteins with streptavidin beads; assay type: binding; conditions: MM-1 or K562 cell lysates
T1 construct: endogenous in cells; host or cells: MM-1 and K562 cell lysates
Procedure: Biotinylated-Degrasyn (10 μM) was incubated with lysates from MM-1 cells (10 mg total protein) and interactive proteins were assessed by affinity recovery using Streptavidin-conjugated beads to bind biotinylated-Degrasyn. Free Degrasyn (10 μM) was incubated with biotinylated-Degrasyn in a parallel experiment to assist in identifying specific protein:Degrasyn interactions. Affinity complexes were washed and Streptavidin-Bio-Deg interaction proteins were assessed by disrupting protein complexes with SDS-sample buffer and resolving proteins by SDS-PAGE. The resolved proteins were detected by silver-staining the gel. Protein bands present in the biotinylated-Degrasyn sample that were absent in samples co-incubated with free Degrasyn were identified and cut from the gel. A 38 kDa protein band was prominent in this assessment and was subjected to in gel trypsinization and identification of HPLC resolved tryptic peptides by tandem mass spectroscopy analysis (David Hawke, Department of Molecular Pathology, M.D. Anderson Cancer Center). This analysis identified nucleophosmin (NPM) as a Degrasyn interactive protein.
To further assess the interaction between NPM and Degrasyn, biotinylated-Degrasyn/streptavidin beads were incubated with MM-1 (left) or K562 (right) cell lysates. In parallel, lysates were co-incubated with free Degrasyn to determine the specificity of the interaction with NPM. […]

[3] = system: Normal dermal human fibroblasts (NDF); assay: Growth/survival and MTT assay of normal dermal fibroblasts; assay type: cell-based
Procedure: Normal dermal human fibroblasts were treated for 1 h at 5 μM Degrasyn before cells were rinsed and cultured in normal growth media for 72 h. Control and treated cells were photographed after 72 h. […] An MTT assay was performed with NDF and A375 cells under these conditions (1 h treatment, 72 h incubation) to estimate the IC50 distinctions between these populations.
MTT (viability) assay. MTT reagent (20 μl of 5 mg/ml stock solution, Sigma) is added to the cells and the plates are incubated at 37° C. for another 2 h. Cells are lysed by adding 100 μl of lysis buffer (20% SDS in 50% N,N-dimethylformamide (Sigma) adjusted to pH 4.7 by 80% acetic acid and 1 M HCl such that the final concentration of acetic acid is 2.5% and HCl is 2.5%) into each well and incubated for 6 h. The OD570 of each sample is determined by using a SPECTRA MAX M2 plate reader (Molecular Devices). The OD in control and treated wells is used as an estimate of the effect of compounds on cell growth and survival.
Cell lines. […] A375 melanoma cells were grown and maintained in the same media. […]

T1 sequence (P06748 whole entry): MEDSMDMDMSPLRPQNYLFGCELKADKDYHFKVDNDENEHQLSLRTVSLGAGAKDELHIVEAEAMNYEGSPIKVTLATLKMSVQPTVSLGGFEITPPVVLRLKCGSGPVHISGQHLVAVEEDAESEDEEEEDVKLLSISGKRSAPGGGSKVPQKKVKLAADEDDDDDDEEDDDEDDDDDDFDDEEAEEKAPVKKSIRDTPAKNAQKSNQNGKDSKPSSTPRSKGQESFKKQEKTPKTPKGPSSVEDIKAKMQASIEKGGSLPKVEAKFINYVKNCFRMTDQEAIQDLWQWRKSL

CCC[C@H](NC(=O)/C(C#N)=C/c1cccc(Br)n1)c1ccccc1 [Degrasyn]
Tyrosine phosphorylated protein species (~70 kDa, ~55 kDa) ([1]; 2 h, MM-1, LP or Mino cells): increased | Time at which p70 and p55 were tyrosine phosphorylated ([1]; MM-1): 15 min | Time of peak intensity of p70 and p55 tyrosine phosphorylation ([1]; MM-1): 1 h | Tyrosine phosphorylated protein species (~70 kDa, ~55 kDa), with IL-6 ([1]; MM-1, 2 h pretreatment, IL-6 15 min): increased | Interaction with NPM [2]: interacts with NPM | Growth or survival of normal dermal fibroblasts ([3]; 5 μM for 1 h, then 72 h in normal growth media): did not affect the growth or survival of NDFs | Activity against melanoma tumors relative to normal dermal fibroblast ([3]; A375 vs NDF, MTT, 1 h treatment, 72 h incubation): > 5 fold
